Molecular target: T1, human γD-crystallin protein (Homo sapiens, UniProt P07320)
T1 construct: 6xHis (N); made in house; host or cells: E. coli (M15pRep; TAM 1 is also named as an expression line); pQe1 plasmids from the King Labs, MIT
T1 sequence (P07320 1-174): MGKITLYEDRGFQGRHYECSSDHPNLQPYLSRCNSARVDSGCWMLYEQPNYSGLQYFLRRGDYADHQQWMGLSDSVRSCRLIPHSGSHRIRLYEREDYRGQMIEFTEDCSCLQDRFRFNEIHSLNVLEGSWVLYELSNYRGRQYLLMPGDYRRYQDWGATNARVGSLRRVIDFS
Assay: Dynamic light scattering of γD-crystallin protein modified with CA(PEG)n
Type: biochemical
Description: The γD- and γS-crystallin DNA sequences are in pQe1 plasmids that were provided by the King Labs at Massachusetts Institute of Technology (Cambridge, Mass.). γ-crystallin protein sequences contain a 6×N-terminal histidine tag (his tag) for purification purposes. The plasmids were transformed into a cloning competent cell line to create additional plasmid DNA. Plasmids were subsequently transformed into an expression competent cell line for protein synthesis (TAM 1 E. coli cells (Active Motif. Carlsbad, Calif.)).
γ-crystallin plasmid DNA was chemically transformed into M15pRep E. coli cells for protein synthesis. 1 L cultures were grown for protein purification. γ-crystallin protein was purified by Ni affinity chromatography. The N-terminal His tag contained on the γ-crystallin proteins preferentially binds to the Ni column. The bound protein can be eluted with an imidazole gradient which competitively binds to the Ni, releasing the purified protein. The procedure for purification is briefly (as before): protein is loaded on column, and washed first with 20 mM (0% B), then 35 mM (10% B), then 60 mM (20% B) imidazole. Protein is then eluted at 150 mM (57% B) imidazole. Purity was confirmed by SDS PAGE gel electrophoresis and fast protein liquid chromatography (FPLC).
Chemical Modification Protocol: • 1) A batch of purified protein was buffer exchanged into PBS pH=6.8 using a HiTrap™ desalting column. • (2) Concentration (A280) was measured prior to the addition of CA(PEG)n. • (3) 100 mg of CA(PEG)n was added to a 3-5 ml batch of the above protein. • (4) The mixture was placed on a shaker at 4° C. at 250 RPM overnight.
First a solution of unmodified γD-crystallin protein at a concentration of 0.1 mg/mL was studied by DLS. The measured correlation function g2-1 is plotted against the delay time (lag time) is given for the scattering angle of 30° in FIG. 2. The CONTIN analysis of the weight of various relaxation times is given in FIG. 3 for scattering angles ranging from 30° to 60°. It is clear that there are two populations in the solution, one corresponding to aggregates and the other corresponding to unaggregated protein.

[1] = 0.9 mg/mL of protein and 33 mg/ml of CA(PEG)n
[2] = 0.4 mg/mL of protein and 15 mg/ml of CA(PEG)2
[3] = 0.3 mg/mL of protein and 11 mg/ml of CA(PEG)3

Compound | aggregate population of γD-crystallin by dynamic light scattering [1] | size of the unaggregated protein by dynamic light scattering [1] | further results
NCCOCCC(=O)O [CA(PEG)1] | absent | 2 nm | 
NCCOCCOCCC(=O)O [CA(PEG)2] |  |  | aggregate population of γD-crystallin by dynamic light scattering [2]: absent; size of the unaggregated protein by dynamic light scattering [2]: 2 nm
NCCOCCOCCOCCC(=O)O [CA(PEG)3] |  |  | aggregate population of γD-crystallin by dynamic light scattering [3]: absent; size of the unaggregated protein by dynamic light scattering [3]: 2 nm
NCCOCCOCCOCCOCCC(=O)O [CA(PEG)4] | absent | 2 nm | 

Reference: US10736863B2, “Methods of inhibiting cataracts and presbyopia” (UNIVERSITY OF MASSACHUSETTS, priority 2015, dated 2020)
